Experimental data reported in patent US11634426B2, “Selective estrogen receptor degraders” (Eli Lilly and Company, priority 2018, dated 2023).

Molecular target: ERα receptor (Homo sapiens (Human), UniProt P03372)
Assay: PRα induction assay in MCF7 cells (ERα agonism)
Format: cell-based
Protocol: The purpose of the following PRα induction assay is to determine whether a test compound has agonistic activity against ERα receptor (an agonist would be expected to activate the receptor).
Culture MCF7 (purchased from ATCC HTB-22) in DMEM media supplemented with 10% FBS, 0.01 mg/mL human insulin 1 and 1% penicillin/streptomycin antibiotics and plate the cells (prior to becoming 70% confluent) in 384-well flat-bottom plates at a density of 4,000 cells per well in 20 μL volume in DMEM phenol red free media containing 10% FBS (charcoal stripped). Incubate the cells overnight in a cell culture incubator (5% CO2, 95% relative humidity at 37° C.) and allow the cells to attach to the plate. The following day, dose the cells with test compound. Use an Echo 555 acoustic dispenser to prepare compound serial dilutions (1:3) in a range from 6 μM to 0.0003 μM. Dose the cells with the addition of the test compound (5 μL) from the serial dilution plate to the cell plate producing a final DMSO concentration of 0.2% with a final concentration of the test compound dose range between 2 and 0.0001 μM. For the maximum point use media containing 0.2% of DMSO and for the minimum point, use fulvestrant diluted at […] final concentrations in the growth media containing 0.2% DMSO. After dosing with the test compound, incubate the cell plates at 37° C. and 5% CO2 for 24 hours. Fix the cells by adding 14% para-formaldehyde (10 μL) for 30 minutes at room temperature. Wash cells once with PBS (20 μL) and incubate with PBS (20 μL) containing 0.5% (v/v) TWEEN® 20 for 1 hour. Wash cells twice with PBS (20 μL) containing 0.05% TWEEN® 20 and block with 3% BSA in PBS containing 0.05% TWEEN® 20 and 0.1% TRITON™ X-100 (20 μL/well) for 1 hour at room temperature. […]
The following day, wash cells with PBS 0.05% TWEEN® 20 (2×20 μL) and incubate with secondary antibody (20 μL/well) (1:1000 dilution, Goat anti-rabbit IgM ALEXA FLUOR™ 488) in PBS 1% BSA for 105 minutes at room temperature. […] Scan plates with ACUMEN EXPLORER™ [Laser-scanning fluorescence microplate cytometer manufactured by TTP LABTECH LTD] to measure PRα. […]

Chain of ERα receptor (P03372 whole entry): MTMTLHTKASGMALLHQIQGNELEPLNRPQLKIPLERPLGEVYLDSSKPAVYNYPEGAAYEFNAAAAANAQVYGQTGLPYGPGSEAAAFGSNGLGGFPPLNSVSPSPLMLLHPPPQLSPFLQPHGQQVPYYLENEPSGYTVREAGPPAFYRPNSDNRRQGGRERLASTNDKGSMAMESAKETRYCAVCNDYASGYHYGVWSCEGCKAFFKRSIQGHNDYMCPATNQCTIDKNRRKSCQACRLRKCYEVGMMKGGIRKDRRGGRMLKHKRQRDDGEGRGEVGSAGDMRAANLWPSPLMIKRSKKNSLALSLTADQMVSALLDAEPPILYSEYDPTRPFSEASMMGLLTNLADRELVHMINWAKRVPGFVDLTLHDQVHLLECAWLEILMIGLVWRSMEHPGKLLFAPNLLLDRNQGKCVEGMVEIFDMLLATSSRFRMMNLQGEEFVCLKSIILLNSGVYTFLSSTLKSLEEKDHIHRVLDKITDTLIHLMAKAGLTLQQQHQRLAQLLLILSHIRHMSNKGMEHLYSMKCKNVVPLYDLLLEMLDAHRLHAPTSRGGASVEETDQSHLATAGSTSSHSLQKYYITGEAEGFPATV

Agonistic activity (PRα induction), no significant agonistic activity:
Oc1ccc2c3c(cnc2c1)-c1ccc(C(F)(F)F)cc1OC3c1ccc(OCCN2CC(CF)C2)cc1 (racemic) [Example 1, Racemic 5-(4-{2-[3-(Fluoromethyl)azetidin-1-yl]ethoxy}phenyl)-8-(trifluoromethyl)-5H-[1]benzopyrano[4,3-c]quinolin-2-ol]
Oc1ccc2c3c(cnc2c1)-c1ccc(C(F)(F)F)cc1OC3c1ccc(OCCN2CC(CF)C2)cc1 (single isomer, unassigned; isomer 1) [Example 1A, 5-(4-{2-[3-(Fluoromethyl)azetidin-1-yl]ethoxy}phenyl)-8-(trifluoromethyl)-5H-[1]benzopyrano[4,3-c]quinolin-2-ol, Isomer 1]
Oc1ccc2c3c(cnc2c1)-c1ccc(C(F)(F)F)cc1OC3c1ccc(OCCN2CC(CF)C2)cc1 (single isomer, unassigned; isomer 2) [Example 1B, 5-(4-{2-[3-(Fluoromethyl)azetidin-1-yl]ethoxy}phenyl)-8-(trifluoromethyl)-5H-[1]benzopyrano[4,3-c]quinolin-2-ol, Isomer 2]
